One block for each compound: values may come before it. The source made the active and inactive calls.
Experiments:
[1] = target: T1, Heat shock factor protein 1 (Mus musculus, UniProt P38532); assay: inhibition of MG132-induced HSE-luciferase signal, confirmation, cell-based, NIH3T3, luminescence, dose retest (AID 2382); type: functional;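 also: NIH3T3 fibroblasts with HSF1-driven luciferase reporter stressed by proteasome inhibitor MG132; luminescence from HSF1-driven luciferase expression after 8 hours of MG132 stress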
T1 sequence (P38532 whole entry): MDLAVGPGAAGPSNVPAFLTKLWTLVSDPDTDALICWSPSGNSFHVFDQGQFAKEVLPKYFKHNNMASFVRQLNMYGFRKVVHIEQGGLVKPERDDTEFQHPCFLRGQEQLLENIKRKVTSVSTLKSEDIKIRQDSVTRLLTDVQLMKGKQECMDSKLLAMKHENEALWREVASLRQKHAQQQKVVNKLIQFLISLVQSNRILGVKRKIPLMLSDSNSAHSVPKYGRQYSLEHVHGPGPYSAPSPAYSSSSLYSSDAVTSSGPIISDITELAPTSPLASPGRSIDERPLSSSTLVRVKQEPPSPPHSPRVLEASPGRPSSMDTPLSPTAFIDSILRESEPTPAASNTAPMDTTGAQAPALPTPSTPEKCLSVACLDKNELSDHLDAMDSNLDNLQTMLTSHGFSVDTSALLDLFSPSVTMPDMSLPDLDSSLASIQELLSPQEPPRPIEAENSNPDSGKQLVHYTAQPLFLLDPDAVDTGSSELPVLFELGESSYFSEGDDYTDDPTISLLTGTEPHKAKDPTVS

[2] = target: T2, Interleukin-8 (Homo sapiens, UniProt P10145); assay: Dose Response confirmation of uHTS small molecule hits for cystic fibrosis induced NFkb Inhibitors in a PAF-induced IL8 counterscreen.; type: functional; settings: read-out: IC50_Mean
T2 sequence (P10145 whole entry): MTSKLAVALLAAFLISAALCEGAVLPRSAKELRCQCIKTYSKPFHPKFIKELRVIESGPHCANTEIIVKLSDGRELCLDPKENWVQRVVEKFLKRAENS

[3] = target: T2, Interleukin-8; assay: Dose Response confirmation of uHTS small molecule hits for cystic fibrosis induced NFkb Inhibitors in a TNFa-induced IL8 counterscreen.; type: functional; settings: read-out: IC50_Mean
[4] = CRF-BP/CRF-R2 complex antagonists, dose response, cell-based, uHTS hits, 384-well (AID 651639); type: functional, Homo sapiens; settings: read-out: IC50_Mean
[5] = target: T3, Corticotropin-releasing factor receptor 2/Corticotropin-releasing factor-binding protein (Homo sapiens, UniProt P24387+Q13324); assay: activators of CRF receptor 2 with binding protein – uHTS hits, confirmation (AID 602473); type: functional; settings: read-out: EC50_Mean
T3 sequence (Q13324 whole entry): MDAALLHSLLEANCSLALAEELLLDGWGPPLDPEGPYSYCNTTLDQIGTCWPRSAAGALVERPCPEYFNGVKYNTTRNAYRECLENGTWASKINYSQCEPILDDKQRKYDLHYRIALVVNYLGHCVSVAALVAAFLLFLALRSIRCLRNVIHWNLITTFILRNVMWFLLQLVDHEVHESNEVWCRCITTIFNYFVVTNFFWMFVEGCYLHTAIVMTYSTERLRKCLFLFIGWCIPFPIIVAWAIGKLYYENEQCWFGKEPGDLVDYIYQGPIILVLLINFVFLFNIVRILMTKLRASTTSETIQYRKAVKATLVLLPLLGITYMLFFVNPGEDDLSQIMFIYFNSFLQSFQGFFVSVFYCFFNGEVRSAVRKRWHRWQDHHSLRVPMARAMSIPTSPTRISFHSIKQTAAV
T3 sequence (P24387 whole entry): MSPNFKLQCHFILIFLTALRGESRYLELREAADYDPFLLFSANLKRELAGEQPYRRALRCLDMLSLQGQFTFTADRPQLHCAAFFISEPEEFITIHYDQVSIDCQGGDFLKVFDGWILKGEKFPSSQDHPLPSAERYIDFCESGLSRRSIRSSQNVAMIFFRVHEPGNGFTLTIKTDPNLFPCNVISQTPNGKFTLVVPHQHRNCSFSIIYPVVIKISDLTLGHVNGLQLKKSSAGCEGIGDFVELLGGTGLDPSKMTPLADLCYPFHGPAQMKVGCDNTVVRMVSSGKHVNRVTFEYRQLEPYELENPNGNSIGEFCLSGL

[6] = target: T3, Corticotropin-releasing factor receptor 2/Corticotropin-releasing factor-binding protein; assay: Dose Response confirmation of uHTS hits for small molecule antagonists of the CRF-binding protein and CRF-R2 receptor complex.; type: functional; settings: read-out: IC50_Mean
[7] = target: Matrix metalloproteinase-14 (Homo sapiens, UniProt P50281); assay: Dose Response confirmation of uHTS hits for a small molecule inhibitors of MT1-MMP activation in a fluorescence assay set 1.; type: functional
[8] = target: T4, Protein skinhead-1 (Caenorhabditis elegans, UniProt P34707); type: functional
T4 sequence (P34707 whole entry): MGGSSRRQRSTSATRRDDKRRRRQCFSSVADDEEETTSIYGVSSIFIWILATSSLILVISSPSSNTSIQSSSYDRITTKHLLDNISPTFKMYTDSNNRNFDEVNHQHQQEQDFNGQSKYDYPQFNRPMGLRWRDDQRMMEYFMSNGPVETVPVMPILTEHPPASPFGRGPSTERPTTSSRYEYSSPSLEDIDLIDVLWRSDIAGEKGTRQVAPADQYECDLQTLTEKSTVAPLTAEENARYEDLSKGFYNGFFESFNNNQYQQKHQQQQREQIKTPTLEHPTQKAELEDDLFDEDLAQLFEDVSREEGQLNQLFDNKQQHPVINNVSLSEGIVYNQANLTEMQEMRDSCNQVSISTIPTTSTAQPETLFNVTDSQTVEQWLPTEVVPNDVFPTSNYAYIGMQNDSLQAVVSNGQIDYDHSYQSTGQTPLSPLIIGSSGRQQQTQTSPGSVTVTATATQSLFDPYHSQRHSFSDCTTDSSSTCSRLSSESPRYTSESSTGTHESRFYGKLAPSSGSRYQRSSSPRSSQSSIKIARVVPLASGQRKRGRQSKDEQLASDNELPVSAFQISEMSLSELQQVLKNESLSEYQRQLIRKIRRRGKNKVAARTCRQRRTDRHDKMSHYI

[9] = miR-122 activators in hepatoma reporter cells, dose response, cell-based, Huh7 psiCHECK-miR122, Renilla luciferase, cherry-picked (AID 651956); type: functional;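 also: huh7 hepatoma cells stably carrying a psiCHECK-2 miR-122 sensor plasmid; renilla luciferase signal reporting endogenous miR-122 activity after 48 h compound exposure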
[10] = Counterscreen for activators of the function of SWI/SNF related, matrix associated, actin dependent regulator of chromatin, subfamily a, member 2 (SMARCA2, BRM): Luminescence-based cell-based high throughput dose response assay to identify non-selective compounds using the VP16 reporter assay.; type: functional
[11] = target: SWI/SNF-related matrix-associated actin-dependent regulator of chromatin subfamily A member 2 (Homo sapiens, UniProt P51531); assay: Luminescence-based cell-based high throughput dose response assay to identify activators of the function of SWI/SNF related, matrix associated, actin dependent regulator of chromatin, subfamily a, member 2 (SMARCA2, BRM).; type: functional
Sequence of SWI/SNF-related matrix-associated actin-dependent regulator of chromatin subfamily A member 2 (P51531 whole entry): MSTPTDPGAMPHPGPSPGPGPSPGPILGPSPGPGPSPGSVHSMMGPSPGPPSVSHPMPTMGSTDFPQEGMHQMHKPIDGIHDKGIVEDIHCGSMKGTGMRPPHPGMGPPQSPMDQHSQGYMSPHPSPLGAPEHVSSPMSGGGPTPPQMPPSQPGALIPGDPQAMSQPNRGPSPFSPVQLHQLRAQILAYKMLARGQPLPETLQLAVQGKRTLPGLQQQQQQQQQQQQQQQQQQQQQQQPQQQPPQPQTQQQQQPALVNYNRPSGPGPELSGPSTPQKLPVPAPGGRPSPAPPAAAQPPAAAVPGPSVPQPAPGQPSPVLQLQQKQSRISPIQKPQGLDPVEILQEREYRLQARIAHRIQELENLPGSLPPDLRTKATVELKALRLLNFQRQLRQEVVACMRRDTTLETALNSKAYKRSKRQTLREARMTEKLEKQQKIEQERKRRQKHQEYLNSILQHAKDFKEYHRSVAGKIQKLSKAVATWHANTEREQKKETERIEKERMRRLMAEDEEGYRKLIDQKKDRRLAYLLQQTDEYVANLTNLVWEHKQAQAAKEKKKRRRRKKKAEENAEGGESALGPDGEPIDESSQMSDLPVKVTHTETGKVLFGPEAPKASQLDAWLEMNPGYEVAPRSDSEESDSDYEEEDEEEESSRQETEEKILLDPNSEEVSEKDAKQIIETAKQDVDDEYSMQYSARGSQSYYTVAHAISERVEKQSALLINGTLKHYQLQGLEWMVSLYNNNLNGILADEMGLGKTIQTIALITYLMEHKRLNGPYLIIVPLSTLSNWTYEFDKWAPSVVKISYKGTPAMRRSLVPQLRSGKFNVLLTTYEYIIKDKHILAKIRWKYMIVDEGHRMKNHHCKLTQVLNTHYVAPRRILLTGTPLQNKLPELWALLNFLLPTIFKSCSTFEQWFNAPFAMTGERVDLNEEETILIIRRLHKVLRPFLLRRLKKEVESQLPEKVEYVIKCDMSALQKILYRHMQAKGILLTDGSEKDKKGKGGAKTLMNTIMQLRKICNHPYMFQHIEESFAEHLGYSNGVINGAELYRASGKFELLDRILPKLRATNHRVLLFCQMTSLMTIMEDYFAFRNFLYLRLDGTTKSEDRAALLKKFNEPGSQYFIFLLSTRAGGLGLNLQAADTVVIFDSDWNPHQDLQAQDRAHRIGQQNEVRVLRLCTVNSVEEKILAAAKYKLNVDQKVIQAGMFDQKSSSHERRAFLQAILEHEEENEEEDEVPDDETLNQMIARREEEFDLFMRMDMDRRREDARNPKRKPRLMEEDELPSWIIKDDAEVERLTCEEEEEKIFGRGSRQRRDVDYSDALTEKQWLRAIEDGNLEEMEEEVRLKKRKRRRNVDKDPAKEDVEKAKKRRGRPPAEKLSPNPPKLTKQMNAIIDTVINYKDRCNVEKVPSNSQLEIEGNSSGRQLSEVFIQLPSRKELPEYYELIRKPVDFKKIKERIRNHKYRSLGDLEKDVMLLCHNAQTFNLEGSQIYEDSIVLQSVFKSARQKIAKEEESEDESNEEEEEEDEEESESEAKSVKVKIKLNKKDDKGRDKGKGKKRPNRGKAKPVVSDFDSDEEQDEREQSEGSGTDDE

[12] = target: T5, Probable nicotinate-nucleotide adenylyltransferase (Staphylococcus aureus (strain N315), UniProt P65502); type: functional, Staphylococcus aureus subsp. aureus N315;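 as to IC50 Mean: confirmatory dose-response retesting of NadD inhibitor hits first found in an ultra-high-throughput screen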
[13] = target: T5, Probable nicotinate-nucleotide adenylyltransferase; type: functional, Staphylococcus aureus subsp. aureus N315; settings: read-out: IC50_Mean
[14] = target: T6, Small ubiquitin-related modifier 1 (Homo sapiens, UniProt P63165); assay: inhibitors of SUMO1 peptide binding, dose response, biochemical, fluorescence polarization, uHTS hits (AID 624382); type: functional; settings: read-out: IC50_Mean
T6 sequence (P63165 whole entry, the tested form may be a part): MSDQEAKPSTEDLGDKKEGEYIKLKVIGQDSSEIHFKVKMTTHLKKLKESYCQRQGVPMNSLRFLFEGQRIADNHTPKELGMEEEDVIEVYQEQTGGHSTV

[15] = target: T7, Carboxy-terminal domain RNA polymerase II polypeptide A small phosphatase 1 (Homo sapiens, UniProt Q9GZU7); assay: inhibitors of CTDSP1, concentration-response testing, biochemical assay, absorbance-based, actives from ultra-high-throughput screening (AID 540297); type: functional
T7 sequence (Q9GZU7 whole entry): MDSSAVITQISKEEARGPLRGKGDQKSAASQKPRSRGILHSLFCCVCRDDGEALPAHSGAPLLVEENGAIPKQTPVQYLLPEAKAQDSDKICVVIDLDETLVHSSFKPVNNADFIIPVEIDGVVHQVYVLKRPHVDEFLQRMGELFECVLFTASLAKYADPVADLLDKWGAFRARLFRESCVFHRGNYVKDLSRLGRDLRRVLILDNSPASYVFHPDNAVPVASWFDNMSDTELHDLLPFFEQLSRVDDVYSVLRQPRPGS

[16] = target: T6, Small ubiquitin-related modifier 1; assay: inhibitors of SUMO1 partner interactions, dose response, biochemical, FRET (AID 624383); type: functional; settings: read-out: IC50_Mean
[17] = target: T8, Low molecular weight phosphotyrosine protein phosphatase (Homo sapiens, UniProt P24666); type: functional; settings: read-out: IC50_Mean;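 also: Dose-response confirmation assay measuring inhibition of LMPTP enzyme activity by fluorescence intensity read-out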
T8 sequence (P24666 whole entry): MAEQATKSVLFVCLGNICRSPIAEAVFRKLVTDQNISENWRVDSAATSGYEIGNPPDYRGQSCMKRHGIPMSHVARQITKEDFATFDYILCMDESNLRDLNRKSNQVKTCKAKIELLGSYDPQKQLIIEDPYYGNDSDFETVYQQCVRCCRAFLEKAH

[18] = Counterscreen for inhibitors of Trypanosoma brucei methionyl tRNA synthetase (MetRS): Luminescence-based cell-based high throughput dose response assay to identify compounds that are cytotoxic to Jurkat human T lymphocyte cells.; type: functional
[19] = target: T9, Methionyl-tRNA synthetase, putative (Trypanosoma brucei brucei, UniProt Q38C91); type: functional, Trypanosoma brucei brucei strain 927/4 GUTat10.1
T9 sequence (Q38C91 whole entry): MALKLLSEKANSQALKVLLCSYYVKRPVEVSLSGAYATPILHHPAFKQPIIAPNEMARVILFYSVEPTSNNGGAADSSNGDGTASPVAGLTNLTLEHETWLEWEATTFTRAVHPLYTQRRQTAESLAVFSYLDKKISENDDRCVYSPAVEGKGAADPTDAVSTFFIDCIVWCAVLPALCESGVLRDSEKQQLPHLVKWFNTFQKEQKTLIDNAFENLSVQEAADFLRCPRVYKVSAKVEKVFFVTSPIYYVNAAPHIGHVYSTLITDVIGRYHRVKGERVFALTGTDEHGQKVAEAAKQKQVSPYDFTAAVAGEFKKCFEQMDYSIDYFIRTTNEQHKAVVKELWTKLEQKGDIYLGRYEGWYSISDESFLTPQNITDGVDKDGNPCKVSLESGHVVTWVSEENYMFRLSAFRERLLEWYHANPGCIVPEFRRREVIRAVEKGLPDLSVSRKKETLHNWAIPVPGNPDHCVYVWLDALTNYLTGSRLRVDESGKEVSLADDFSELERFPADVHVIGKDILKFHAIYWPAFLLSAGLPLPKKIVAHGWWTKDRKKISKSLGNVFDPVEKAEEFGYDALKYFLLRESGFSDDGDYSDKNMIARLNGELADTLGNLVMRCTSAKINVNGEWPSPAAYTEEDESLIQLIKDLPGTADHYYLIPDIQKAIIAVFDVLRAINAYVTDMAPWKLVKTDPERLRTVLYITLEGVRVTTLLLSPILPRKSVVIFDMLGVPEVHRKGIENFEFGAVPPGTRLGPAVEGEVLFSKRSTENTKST

[20] = target: T9, Methionyl-tRNA synthetase, putative; type: functional, Trypanosoma brucei brucei strain 927/4 GUTat10.1; remark: listed apart in the source
[21] = ARNT/TACC3 interaction disruptors, potency, confirmation, biochemical, AlphaScreen, cherry-picked samples (AID 651703); type: functional, Homo sapiens;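 also: His-tagged ARNT PAS-B domain paired with GST-TACC3 E629A dimer coactivator fragment; potency of inhibitors that break up the complex and lower AlphaScreen signal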

- EC50 [1]: 2.79 µM (active)
- IC50 [2]: 4.72 µM (active)
- IC50 [3]: 39.9 µM (inactive)
Structure (SMILES): CCN1CCN(Cc2ccc(NC(=O)c3ccc(C)c(NC(=O)c4cccc5[nH]ccc45)c3)cc2C(F)(F)F)CC1

Structure (SMILES): COCCCn1c(-c2ccc(OC)cc2)cc(C(=O)NC2CCCCCCC2)c1C
- IC50 [4]: 11.5 µM (active)
- EC50 [5]: > 53 µM (inactive)
- IC50 [6]: 3.95 µM (active)

- IC50 [7]: 46.5 µM (inactive)
- IC50 [8]: > 100 µM (inactive)
Structure (SMILES): O=C(NNc1c2ccccc2nc2ccccc12)c1ccc(Cl)cc1

Structure (SMILES): c1ccc(-n2nnnc2NCCc2c[nH]c3ccccc23)cc1
- AC50 [9]: 9.93 µM (active)

Structure (SMILES): CCc1c(C)c2ccc(OC3CCCCC3=O)cc2oc1=O (stereo not drawn)
- EC50 [10]: > 91.2 µM (inactive)
- EC50 [11]: > 91.2 µM (inactive)

- IC50 [12]: 13.7 µM (active)
- IC50 [13]: 52.2 µM (active)
Structure (SMILES): O=C(CN1c2ccccc2Sc2ccccc21)NNC(=S)Nc1ccc(Cl)cc1Cl

Structure (SMILES): COC(=O)c1ccc(C(=O)Nc2ccc3c(c2)C(=O)NC3=O)cc1
- IC50 [14]: > 66.6 µM (inactive)
- IC50 [15]: 6.87 µM (active)
- IC50 [16]: 5.19 µM (active)

Structure (SMILES): O=C(Nc1ccc2oc(-c3ccncc3)nc2c1)c1ccc2c(c1)OCO2
- IC50 [14]: > 66.6 µM (inactive)
- IC50 [16]: 7.12 µM (active)
- IC50 [17]: 7.98 µM (active)

- IC50 [4]: > 20 µM (inactive)
- EC50 [5]: > 53 µM (inactive)
- IC50 [6]: 33.8 µM (active)
Structure (SMILES): Cc1noc(C)c1COC(=O)Cc1ccc(Cl)c(Cl)c1

Structure (SMILES): O=C(CSc1nc2ccccc2[nH]1)Nc1nc(-c2ccc(Br)cc2)cs1
- IC50 [18]: 55.6 µM (inactive)
- IC50 [19]: 85.4 µM (inactive)
- IC50 [20]: 90.6 µM (inactive)

Structure (SMILES): CCN(CC)C(=O)CSc1nnc(-c2ccccn2)n1-c1ccc(C)c(C)c1
- AC50 [21]: 92.4 µM (active)

- IC50 [12]: 5.34 µM (active)
- IC50 [13]: 23.8 µM (active)
Structure (SMILES): CCOc1ccc(C(=O)N/N=C/c2ccc(-c3ccc(S(=O)(=O)Nc4ncccn4)cc3)o2)cc1

Reference: ChEMBL document CHEMBL1201862, “PubChem BioAssay data set” (2004)
